Laboratory results reported in PMC3529809 (Steroids, 2012).
Several values for one entry are separate records, joined by “and”; a condition that tells them apart may be missing. Identical values can stand only once. Entries after “also recorded” stand apart in the source; their conditions may differ.

Legend:
[1] = target: T1, human ERβ (Homo sapiens, UniProt Q92731); assay: ERELUC transient transfection reporter assay, ERβ in HepG2 cells; format: cell-based; conditions: for effect on ERβ-mediated induction of ERELUC by E2, DHEA, 7-oxo-DHEA, ADIOL and ADIONE: 1 µM ICI, 100 nM 4-OHT, 1 µM R,R-THC, 5 µM sterol, Fig. 3B; for ERELUC activity in ERβ-expressing HepG2 cells: 5 µM, 24 h, Fig. 1B, result in words
[2] = test system: NRF1 (NRF-1) expression; assay: QRT-PCR of NRF1 in ERβ-transfected HepG2 cells; format: cell-based, human; conditions: 10 nM E2 or 5 µM sterol, 24 h, Fig. 5B
[3] = test system: MCF-7 cells; conditions: cited from earlier work; for proliferation of MCF-7 cells: 1–10 µM concentrations; for MCF-7 cell proliferation: less than E2
[4] = test system: ERα; conditions: 0.1 µM, HEK-293; cited from earlier work
[5] = test system: ERβ; conditions: 0.1 µM, HEK-293; cited from earlier work
[6] = target: T2, hERα (Homo sapiens, UniProt P03372); assay: [3H] E2 ligand binding competition; conditions: for ERα binding / competition with E2: result in words
[7] = target: T1, human ERβ; assay: [3H] E2 ligand binding competition; conditions: IC50 for ERβ, competition with 30 nM [3H] E2, Fig. 6B
[8] = target: T2, hERα; assay: ERELUC transient transfection reporter assay, ERα in HEK-293 cells; format: cell-based; conditions: for ERα agonist activity in ERELUC assay: result in words
[9] = test system: TFF1 (pS2), PGR (PR), CTSD (cathepsin D) transcription; assay: QRT-PCR of endogenous ER-target genes in ERα-transfected HEK-293 cells; format: cell-based, human; conditions: 10 nM E2 or 5 µM sterol, 24 h, Fig. 5A
[10] = test system: MCF-7 human breast cancer cells; assay: Cell proliferation BrdU assay; format: cell-based; conditions: for MCF-7 cell proliferation: 48 h BrdU, 10 nM E2, 5 µM sterols, Fig. 7
[11] = test system: ERα; conditions: 50 µM, COS cells; cited from earlier work
[12] = test system: ERβ; conditions: 50 µM, COS cells; cited from earlier work
[13] = target: T2, hERα; format: cell-based; conditions: Supplemental Fig. 1
[14] = MEK1/2 inhibitor, data not shown

T2 sequence (P03372 whole entry): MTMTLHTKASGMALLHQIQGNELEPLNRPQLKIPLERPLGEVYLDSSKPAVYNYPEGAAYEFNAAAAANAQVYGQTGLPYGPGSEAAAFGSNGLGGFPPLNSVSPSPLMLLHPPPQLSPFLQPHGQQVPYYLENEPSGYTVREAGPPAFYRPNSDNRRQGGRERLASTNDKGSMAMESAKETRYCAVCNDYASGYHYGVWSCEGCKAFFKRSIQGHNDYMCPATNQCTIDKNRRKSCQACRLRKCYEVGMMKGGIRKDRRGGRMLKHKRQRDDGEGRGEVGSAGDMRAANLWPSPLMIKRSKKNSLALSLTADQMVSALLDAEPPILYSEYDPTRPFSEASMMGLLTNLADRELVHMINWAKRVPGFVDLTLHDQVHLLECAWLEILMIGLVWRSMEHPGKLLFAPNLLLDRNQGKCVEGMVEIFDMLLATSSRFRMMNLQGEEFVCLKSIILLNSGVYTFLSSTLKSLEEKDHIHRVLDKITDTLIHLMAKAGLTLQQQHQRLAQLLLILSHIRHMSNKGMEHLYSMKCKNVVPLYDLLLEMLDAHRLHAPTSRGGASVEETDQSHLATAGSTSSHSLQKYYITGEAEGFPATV
T1 sequence (Q92731 whole entry): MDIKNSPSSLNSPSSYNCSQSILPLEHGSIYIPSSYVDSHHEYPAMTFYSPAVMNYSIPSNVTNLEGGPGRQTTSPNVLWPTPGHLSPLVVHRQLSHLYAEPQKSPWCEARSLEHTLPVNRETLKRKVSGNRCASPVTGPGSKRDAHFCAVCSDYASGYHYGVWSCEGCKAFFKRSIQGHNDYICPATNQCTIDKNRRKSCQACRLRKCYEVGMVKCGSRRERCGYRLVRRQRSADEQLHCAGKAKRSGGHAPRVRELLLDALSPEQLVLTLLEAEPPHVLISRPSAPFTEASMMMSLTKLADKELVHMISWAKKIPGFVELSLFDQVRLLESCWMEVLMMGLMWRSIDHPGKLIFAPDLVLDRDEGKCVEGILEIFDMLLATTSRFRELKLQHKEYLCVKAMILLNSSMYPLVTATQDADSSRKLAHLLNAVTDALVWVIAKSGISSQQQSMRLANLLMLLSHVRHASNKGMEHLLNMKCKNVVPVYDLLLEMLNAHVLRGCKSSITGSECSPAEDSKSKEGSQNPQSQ

## CC[C@@H]1Cc2cc(O)ccc2C2=C1c1ccc(O)cc1C[C@H]2CC (relative stereo) [R,R-THC, R,R-cis-diethyl tetrahydrochrysene, reference compound]
[1]
  effect on ERβ-mediated induction of ERELUC by E2, DHEA, 7-oxo-DHEA, ADIOL and ADIONE: significantly inhibited

## C[C@]12CC[C@H](O)C[C@@H]1CC[C@@H]1[C@@H]2CC[C@]2(C)[C@@H](O)CC[C@@H]12 [3β-Adiol, 5α-androstane-3β,17β-adiol]
[2]
  NRF-1 mRNA expression: increased; also recorded: low induction
[3]
  proliferation of MCF-7 cells: stimulated proliferation
[4]
  ERE-luciferase activity, ERα: activated
[5]
  ERE-luciferase activity, ERβ: activated

## CC/C(=C(\c1ccc(O)cc1)c1ccc(OCCN(C)C)cc1)c1ccccc1 [4-OHT, 4-hydroxytamoxifen, reference compound]
[1]
  effect on ERβ-mediated induction of ERELUC by E2, DHEA, 7-oxo-DHEA, ADIOL and ADIONE: inhibited

## C[C@]12CC[C@H](O)CC1=CC(=O)[C@@H]1[C@@H]2CC[C@]2(C)C(=O)CC[C@@H]12 [7-oxo-DHEA, 3β-hydroxyandrost-5-ene-7,17-dione]
[6]
  ERα binding / competition with E2: did not exhibit significant ERα binding
[7]
  IC50: 500 µM
[8]; HEK-293
  ERα agonist activity in ERELUC assay: lack of ERα-induced ERE-luciferase activity
[1]
  ERELUC activity in ERβ-expressing HepG2 cells: significantly induced
[9]
  CTSD (cathepsin D) expression: no activation
  PGR (PR) expression: no activation
  TFF1 (pS2) expression: increased
[2]
  NRF-1 mRNA expression: low induction
[10]
  MCF-7 cell proliferation: increased

## C[C@]12CC[C@H](O)CC1=C[C@@H](O)[C@@H]1[C@@H]2CC[C@]2(C)C(=O)CC[C@@H]12 [7α-OH-DHEA, 7α-hydroxy-DHEA]
[8]; HEK-293
  ERα agonist activity in ERELUC assay: lack of ERα activity
[1]
  ERELUC activity in ERβ-expressing HepG2 cells: increased
[9]
  CTSD (cathepsin D) expression: no induction
  PGR (PR) expression: no induction
  TFF1 (pS2) expression: no induction
[2]
  NRF-1 mRNA expression: low induction
[2]; listed as α-OH-DHEA
  NRF-1 mRNA expression: statistically significant increase
[11]
  ERE-TK-luciferase reporter activity, ERα: stimulated activity
[12]
  ERE-TK-luciferase reporter activity, ERβ: stimulated activity

## C[C@]12CC[C@H](O)C[C@@H]1C[C@@H](O)[C@@H]1[C@@H]2CC[C@]2(C)C(=O)CC[C@@H]12 [7α-OH-EpiA, 7α-hydroxy-epiandrosterone]
[3]; 1–100 nM
  MCF-7 proliferation: inhibited

## C[C@]12CC[C@H](O)CC1=C[C@H](O)[C@@H]1[C@@H]2CC[C@]2(C)C(=O)CC[C@@H]12 [7β-OH-DHEA, 7β-hydroxy-DHEA]
[1]
  ERELUC activity in ERβ-expressing HepG2 cells: suppressed

## C[C@]12CC[C@H](O)C[C@@H]1C[C@H](O)[C@@H]1[C@@H]2CC[C@]2(C)C(=O)CC[C@@H]12 [7β-OH-EpiA, 7β-Hydroxy-epiandrosterone]
[3]; 1–100 nM, no dose-response detected
  E2-induced proliferation of MCF-7 cells: inhibited
[3]; 1–100 nM
  cell proliferation, compound alone: did not affect

## C[C@]12CC[C@H](O)CC1=CC[C@@H]1[C@@H]2[C@@H](O)C[C@]2(C)C(=O)CC[C@@H]12 [11β-OH-DHEA, 11β-hydroxy-DHEA]
[1]
  ERELUC activity in ERβ-expressing HepG2 cells: suppressed

## C[C@]12CC[C@H](O)CC1=CC[C@@H]1[C@@H]2CC[C@]2(C)C(=O)[C@H](O)C[C@@H]12 [16α-OH-DHEA, 16α-hydroxy-DHEA]
[8]; HEK-293
  ERα agonist activity in ERELUC assay: lack of ERα-induced ERE-luciferase activity
[1]
  ERELUC activity in ERβ-expressing HepG2 cells: increased
[9]
  CTSD (cathepsin D) expression: no activation
  PGR (PR) expression: no activation
  TFF1 (pS2) expression: increased
[2]
  NRF-1 mRNA expression: statistically significant increase; also recorded: low induction

## C[C@]12CC[C@H]3[C@@H](CC=C4C[C@@H](O)CC[C@@]43C)[C@@H]1CC[C@@H]2O [ADIOL, androst-5-ene-3β,17β-diol]
[1]
  ERELUC activity in ERβ-expressing HepG2 cells: significantly induced
[9]
  TFF1 (pS2) expression: increased
[2]
  NRF-1 mRNA expression: statistically significant increase
[10]
  MCF-7 cell proliferation: increased
[3]
  proliferation of MCF-7 cells: stimulated proliferation
  MCF-7 cell proliferation: increased cell proliferation
[3]; DHEA 0.5 µM, ADIOL 2 nM
  MCF-7 cell growth: stimulated
[4]
  ERE-luciferase activity, ERα: activated
[5]
  ERE-luciferase activity, ERβ: activated

## C[C@]12CCC(=O)CC1=CC[C@@H]1[C@@H]2CC[C@]2(C)C(=O)CC[C@@H]12 [ADIONE, androst-5-ene-3,17-dione]
[7]
  IC50: 50 µM and ~50 µM
[1]
  ERELUC activity in ERβ-expressing HepG2 cells: significantly induced
[1]; listed as androst-5-ene-3,17-dione
  ERELUC activity in ERβ-expressing HepG2 cells: effective in activating
[2]
  NRF-1 mRNA expression: did not increase
[10]
  MCF-7 cell proliferation: increased

## CC(O)(CS(=O)(=O)c1ccc(F)cc1)C(=O)Nc1ccc(C#N)c(C(F)(F)F)c1 (stereo not drawn) [Bicalutamide, reference compound]
[10]; 10 µM bicalutamide, pretreatment 4 h, also blocked DHT-induced proliferation
  effect on DHEA-, 7-oxo-DHEA-, ADIOL- and ADIONE-induced proliferation: inhibited

## C[C@]12CC[C@H](OS(=O)(=O)O)CC1=CC[C@@H]1[C@@H]2CC[C@]2(C)C(=O)CC[C@@H]12 [DHEA-S, DHEA 3β-sulfate]
[6]; read-out: IC50 for ERα, competition with 30 nM [3H] E2, Fig. 6A
  IC50: 100 to 500 µM
[8]; 5 µM, 24 h, HEK-293, Fig. 1B
  induction of ERELUC activity via ERα: around 9 fold
[8]; concentration-response, at higher concentrations, HEK-293, Fig. 2A
  induction of ERELUC expression with ERα: ~ 2 fold
[9]
  CTSD (cathepsin D) expression: increased
  PGR (PR) expression: increased
  TFF1 (pS2) expression: increased
[10]
  MCF-7 cell proliferation: increased
[3]
  MCF-7 cell proliferation: increased cell proliferation

## C[C@]12CCC(=O)C[C@@H]1CC[C@@H]1[C@@H]2CC[C@]2(C)[C@@H](O)CC[C@@H]12 [DHT, dihydrotestosterone, reference compound]
[10]
  MCF-7 cell proliferation: concentration-dependent increase
[3]
  proliferation of MCF-7 cells: stimulated proliferation

## C[C@]12CC[C@@H]3c4ccc(O)cc4CC[C@H]3[C@@H]1CC[C@@H]2O [E2, 17β-estradiol, reference compound]
[9]
  CTSD (cathepsin D) expression: increased
  PGR (PR) expression: increased
  TFF1 (pS2) expression: increased
[2]
  NRF-1 mRNA expression: statistically significant increase; also recorded: low induction

## C[C@]12CC[C@@H]3c4ccc(O)cc4C[C@@H](CCCCCCCCC[S+]([O-])CCCC(F)(F)C(F)(F)F)[C@H]3[C@@H]1CC[C@@H]2O (stereo partly drawn) [ICI 182,780, reference compound]
[8]; 1 µM ICI, 100 nM 4-OHT, 1 µM R,R-THC, 5 µM sterol, Fig. 3A
  effect on ERα-mediated induction of ERELUC by E2, DHEA, DHEA-S and ADIOL: inhibited
[1]
  effect on ERβ-mediated induction of ERELUC by E2, DHEA, 7-oxo-DHEA, ADIOL and ADIONE: inhibited
[10]; 100 nM ICI 182,780, pretreatment 6 h
  effect on E2-induced stimulation of MCF-7 cell proliferation: inhibited
[3]
  effect on the proliferative activity of 10 nM DHEA in MCF-7 cells: lack of inhibition

## COc1cccc(-c2cc(=O)c3ccccc3o2)c1N [PD998059, reference compound]
[8]; [14]
  effect on DHEA or metabolite-induced ERELUC activity, ERα: did not block
[1]; [14]
  effect on DHEA or metabolite-induced ERELUC activity, ERβ: did not block

## C[C@]12CCC(=O)C=C1CC[C@@H]1[C@@H]2CC[C@]2(C)C(=O)CC[C@@H]12 [androst-4-ene-3,17-dione]
[1]
  ERELUC activity in ERβ-expressing HepG2 cells: effective in activating

## C=C1C[C@@H]2[C@H](CC[C@]3(C)C(=O)CC[C@@H]23)[C@@]2(C)C=CC(=O)C=C12 [exemestane, reference compound]
[8]; 100 nM exemestane, HEK-293, Fig. 4A
  effect on E2, DHEA or ADIOL induced ERELUC activity in ERα-transfected cells: did not significantly inhibit
[1]; 100 nM exemestane, HepG2, Fig. 4B
  effect on ADIONE activation of ERβ: no effect
[1]; HepG2, read-out: inhibition of DHEA-, ADIOL- and 7-oxo-DHEA-induced ERELUC reporter activity
  inhibition at 0.1 µM: 20 to 30%
[10]; 100 nM exemestane, 5 µM sterol, 48 h
  effect on proliferation with ADIOL or ADIONE: no inhibitory activity

## Clc1ccc(COC(Cn2ccnc2)c2ccc(Cl)cc2Cl)c(Cl)c1 (stereo not drawn) [miconazole, reference compound]
[6]; 100 µM competitor, Supplemental Fig. 2
  inhibition of [3H] E2 binding to recombinant human ERα: 15%
[6]
  ERα binding / competition with E2: did not compete
[8]; 5 µM miconazole, HEK-293
  effect on DHEA-stimulated ERα transcriptional activity: did not inhibit
[8]; 5 µM miconazole, HEK-293, Fig. 4A
  effect on ERα activation of ERELUC in response to E2 and ADIOL: reduced
[1]; 5 µM miconazole, HepG2, Fig. 4B
  effect on ERβ activation of ERELUC in response to E2, ADIOL, DHEA, ADIONE and 7-oxo-DHEA: reduced
[13]; 10 nM E2, miconazole pretreatment
  effect on E2-induced ERα-ERE-LUC activity: inhibited
[13]; miconazole pretreatment
  increase of basal ERE-luciferase reporter activity: ~ 0.8 fold
[10]; 5 µM miconazole, 48 h
  effect on MCF-7 cell proliferation induced by E2, DHEA, ADIOL and ADIONE: inhibited

## C[C@]12CC[C@H]3[C@@H](CCC4=CC(=O)CC[C@@]43C)[C@@H]1CC[C@@H]2O [testosterone]
[3]
  proliferation of MCF-7 cells: stimulated proliferation
